In US20100190794A1, “Herbicidally Active Composition” (BASF SE, priority 2007, published 2010):
One block for each compound: values may come before it.

Tests used:
SETVI = assay: greenhouse test, pre-emergence treatment; assay type: in vivo, Setaria viridis; conditions: 25 g/ha a.s., Use Example 11
Description: (§1) The culture containers used were plastic pots containing loamy sand with approximately 3.0% of humus as substrate. The seeds of the test plants were sown separately for each species.
(§2) For the pre-emergence treatment, the active compounds, suspended or emulsified in water, were applied directly after sowing by means of finely distributing nozzles. The containers were irrigated gently to promote germination and growth and subsequently covered with transparent plastic hoods until the plants had rooted. This cover caused uniform germination of the test plants unless this was adversely affected by the active compounds.
Depending on the species, the plants were kept at 10-25° C. and 20-35° C., respectively. […] During this time, the plants were tended and their response to the individual treatments was evaluated. […]
(§3) The test period extended over 20 or 21 days. During this time, the plants were tended, and their reactions to the treatment with active compound was monitored.
(§4) What was evaluated was the damage by the chemical compositions using a scale of from 0 to 100%, in comparison to the untreated control plants. […]
(§5) In the examples below, using the method of S. R. Colby (1967) “Calculating synergistic and antagonistic responses of herbicide combinations”, Weeds 15, p. 22 ff., the value E, which is expected if the activity of the individual active compounds is only additive, was calculated. […]

LOLMU = assay: greenhouse test, pre-emergence treatment; assay type: in vivo, Lolium multiflorum; conditions: 25 g/ha a.s., Use Example 11
Description: as §1, §2
(§6) Depending on the species, the plants were kept at 10-25° C. and 20-35° C., respectively. The test period extended over 2 to 4 weeks. During this time, the plants were tended and their response to the individual treatments was evaluated.
(§7) Evaluation was carried out using a scale from 0 to 100. 100 means no emergence of the plants, or complete destruction of at least the above-ground parts, and 0 means no damage or normal course of growth. Good herbicidal activity is given at values of at least 70, and very good herbicidal activity is given at values of at least 85.
(§8) The respective stated components A and B, and if appropriate, C were formulated as a 5% by weight or 10% by weight strength emulsion concentrate or a commercially available formulation of component B was used and, with addition of the amount of solvent system, introduced into the spray liquor used for applying the active compound. In the examples, the solvent used was water.
as §3
(§9) What was evaluated was the damage by the chemical compositions using a scale of from 0 to 100%, in comparison to the untreated control plants. 0 means no damage, and 100 means complete destruction of the plants.
(§10) In the examples below, using the method of S. R. Colby (1967) “Calculating synergistic and antagonistic responses of herbicide combinations”, Weeds 15, p. 22 ff., the value E, which is expected if the activity of the individual active compounds is only additive, was calculated.
(§11) where X=percent activity using active compound A at an application rate a; Y=percent activity using active compound B at an application rate b; E=expected activity (in %) by A+B at application rates a+b.
(§12) If the value found in experiments is higher than the value E calculated according to Colby, a synergistic effect is present.

DIGSA = assay: greenhouse test, pre-emergence treatment; assay type: in vivo, Digitaria sanguinalis; conditions: Use Example 22
Description: as §1, §2, §6, §7, §8, §3, §9, §10, §11, §12

ECHCG = assay: greenhouse test, pre-emergence treatment; assay type: in vivo, Echinochloa crus-galli; conditions: Use Example 22
Description: as §1, §2, §6, §7, §8, §3, §9, §10, §11, §12

SOLNI = assay: greenhouse test, pre-emergence treatment; assay type: in vivo, Solanum nigrum L.; conditions: Use Example 22
Description: as §1, §2, §6, §7, §8, §3, §9, §10, §11, §12

SETFA = assay: greenhouse test, pre-emergence treatment; assay type: in vivo, Setaria faberi
Description: as §1, §2, §6, §7, §8, §3, §9, §10, §11, §12

BRAPL = assay: greenhouse test, pre-emergence treatment; assay type: in vivo, Brachiaria plantaginea; conditions: Use Example 12
Description: as §1, §2, §6, §7, §8, §3, §9, §10, §11, §12

LAMPU = assay: greenhouse test, pre-emergence treatment; assay type: in vivo, Lamium purpureum; conditions: 25 g/ha a.s., Use Example 11
Description: as §1, §2, §6, §7, §8, §3, §9, §10, §11, §12

POAAN = assay: greenhouse test, pre-emergence treatment; assay type: in vivo, Poa annua; conditions: 6.25 g/ha a.s., Use Example 6
Description: as §1, §2, §6, §7, §8, §3, §9, §10, §11, §12

AVEFA = assay: greenhouse test, pre-emergence treatment; assay type: in vivo, Avena fatua; conditions: 6.25 g/ha a.s., Use Example 6
Description: as §1, §2, §6
as §7, with “85. […]” for “85.”
as §3, §4, §5, §12

melting point: 175 °C
SMILES: CN1C(=O)C(Cc2ccccc2)N(C)C(=O)C1=Cc1c(C#N)ccc(F)c1F (stereo not drawn) [Example 15, 2-[5-Benzyl-1,4-dimethyl-3,6-dioxopiperazin-2-ylidenemethyl]-3,4-difluoro-benzonitrile]

SMILES: Cn1nc(C(F)(F)F)c(CS(=O)(=O)C2=NOC(C)(C)C2)c1OC(F)F [Pyroxasulfone]
Herbicidal action in % after 21 days against SETVI (SETVI): 100%
Herbicidal action in % after 21 days against LOLMU (LOLMU): 90%
Herbicidal action in % after 20 days against DIGSA (DIGSA; 6.25 g/ha a.s.): 70%
Herbicidal action in % after 20 days against DIGSA (DIGSA; 13 g/ha a.s.): 95%
Herbicidal action in % after 20 days against ECHCG (ECHCG; 6.25 g/ha a.s.): 55%
Herbicidal action in % after 20 days against ECHCG (ECHCG; 13 g/ha a.s.): 85%
Herbicidal action in % after 20 days against SOLNI (SOLNI; 6.25 g/ha a.s.): 40%
Herbicidal action in % after 20 days against SOLNI (SOLNI; 13 g/ha a.s.): 85%
Herbicidal action in % after 20 days against SETFA (SETFA; 6.25 g/ha a.s., Use Example 22): 75%
Herbicidal action in % after 20 days against SETFA (SETFA; 12.5 g/ha a.s., Use Example 12): 75%
Herbicidal action in % after 20 days against SETFA (SETFA; 13 g/ha a.s., Use Example 22): 98%
Herbicidal action in % after 20 days against SETFA (SETFA; 25 g/ha a.s., Use Example 12): 98%
Herbicidal action in % after 20 days against BRAPL (BRAPL; 12.5 g/ha a.s.): 40%
Herbicidal action in % after 20 days against BRAPL (BRAPL; 25 g/ha a.s.): 75%
Herbicidal action in % after 21 days against LAMPU (LAMPU): 55%

SMILES: CC(C)N(C)S(=O)(=O)NC(=O)c1cc(-n2c(=O)cc(C(F)(F)F)n(C)c2=O)c(F)cc1Cl [2-chloro-5-[3,6-dihydro-3-methyl-2,6-dioxo-4-(trifluoromethyl)-1(2H)-pyrimidinyl]-4-fluoro-N-[(isopropyl)methylsulfamoyl]benzamide, reference compound]
Herbicidal action in % after 20 days against POAAN (POAAN): 0%
Herbicidal action in % after 20 days against AVEFA (AVEFA): 0%
